Patent US20240279233A1, “MACROCYCLIC TAK1 INHIBITORS” (Aqilion AB, priority 2021, published 2024)
Values after ≈ are worked out from the molar mass of the structure shown. Like-named read-outs stand apart in the source and are kept apart here.

Key:
[1] = biological target: human recombinant TAK1-TAB1 Kinase (TAK1 (1-303) and TAB1 (437-end)) (Homo sapiens (Human), UniProt O43318); assay: TAK1 biochemical ADP-Glo kinase assay; conditions: MBP substrate
How it was run: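 Inhibition of human recombinant TAK1-TAB1 kinase was measured with a Promega ADP-Glo luminescence assay in 384-well plates. Compounds in 5% DMSO were pre-incubated 10 min with 2 μl TAK1-TAB1 (7.5 ng/μl) in buffer of Tris pH 7.5, MgCl2, DTT and BSA. MBP substrate and ATP were then added for 1 hour at room temperature. ADP-Glo reagent and kinase detection substrate followed, luminescence was read on an Envision, and IC50 came from non-linear regression.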

[2] = Solubility assay in phosphate buffer; conditions: phosphate buffer, pH 7.4, aqueous buffer, kinetic from dmso stock
Experimental: The aqueous solubility of selected example compounds was determined as follows; 6 μL of DMSO stock solution of the selected example was added to 594 μL phosphate buffer (100 mM, pH 7.4). The resulting mixture was equilibrated over night (20-24 h, Alligator Shaker, room temperature). The mixture was then filtered (Millex LH 0.45 μm) and the concentration/solubility was determined by LC-UV quantification.

[3] = 10 μM ATP, read-out: TAK1 Mean IC50 (nM) @ 10 μM ATP
[4] = 1 mM ATP, read-out: TAK1 Mean IC50 (nM) @ 1 mM ATP
[5] = Solubility (μM), phosphate buffer 100 mM, pH 7.4, room temperature, 20-24 h, LC-UV

Sequence of human recombinant TAK1-TAB1 Kinase (TAK1 (1-303) and TAB1 (437-end)) (O43318 other isoform, or with tags, fused parts or gaps): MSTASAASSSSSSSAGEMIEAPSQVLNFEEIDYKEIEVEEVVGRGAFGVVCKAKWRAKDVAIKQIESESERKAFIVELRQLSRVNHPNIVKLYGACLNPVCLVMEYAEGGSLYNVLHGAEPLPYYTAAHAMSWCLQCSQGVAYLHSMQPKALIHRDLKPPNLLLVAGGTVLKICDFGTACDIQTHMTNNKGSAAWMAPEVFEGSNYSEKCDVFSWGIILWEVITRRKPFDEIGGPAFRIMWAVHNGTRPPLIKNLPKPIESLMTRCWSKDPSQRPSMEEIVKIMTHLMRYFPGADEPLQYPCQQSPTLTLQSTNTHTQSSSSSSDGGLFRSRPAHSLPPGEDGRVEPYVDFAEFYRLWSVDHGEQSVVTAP

| IC50 [1, 3] [nM] | IC50 [1, 4] [nM] | solubility [2, 5] [µM] | Compound | solubility [2] [µM] |
| --- | --- | --- | --- | --- |
| 4 | – | 11 (≈ 4.87 µg/mL) | CC1CCCCNC(=O)c2cccc(c2)C(=O)/N=C2\Nc3cccc(-c4nccn4C)c3N21 (single isomer, unassigned) [Example 136, (E)-11-methyl-1^7-(1-methyl-1H-imidazol-2-yl)-1^2,1^3-dihydro-1^1H-2,6-diaza-1(2,1)-benzo[d]imidazola-4(1,3)-benzenacycloundecaphane-3,5-dione] | – |
| – | 15 | – | [2H]C([2H])([2H])N(C(=O)c1cccc2c1N1/C(=N/C(=O)c3cccc(c3)C(=O)NCCCC[C@@H]1C)N2)C([2H])([2H])[2H] [Example 118, (S,E)-11-methyl-N,N-bis(methyl-d3)-3,5-dioxo-1^2,1^3-dihydro-1^1H-2,6-diaza-1(2,1)-benzo[d]imidazola-4(1,3)-benzenacycloundecaphane-1^7-carboxamide] | – |
| 7 | 22 | – | C[C@H]1CCCCNC(=O)c2cccc(c2)C(=O)/N=C2\Nc3ccnc(N4CCCC4=O)c3N21 [Example 119, (S,E)-11-methyl-1^4-(2-oxopyrrolidin-1-yl)-1^2,1^3-dihydro-1^1H-2,6-diaza-1(2,3)-imidazo[4,5-c]pyridina-4(1,3)-benzenacycloundecaphane-3,5-dione] | – |
| 9 | 57 | – | C[C@H]1CCCCNC(=O)c2cccc(c2)C(=O)/N=C2\Nc3ccnc(N4CCN(C5CC5)C4=O)c3N21 [Example 122, (S,E)-1^4-(3-cyclopropyl-2-oxoimidazolidin-1-yl)-11-methyl-1^2,1^3-dihydro-1^1H-2,6-diaza-1(2,3)-imidazo[4,5-c]pyridina-4(1,3)-benzenacycloundecaphane-3,5-dione] | – |
| 7 | 9 | – | C[C@H]1CCCCNC(=O)c2cccc(c2)C(=O)/N=C2\Nc3cc(CN4CCN(C)CC4)cc(C(=O)N(C)C)c3N21 [Example 124, (S,E)-N,N,11-trimethyl-1^5-((4-methylpiperazin-1-yl)methyl)-3,5-dioxo-1^2,1^3-dihydro-1^1H-2,6-diaza-1(2,1)-benzo[d]imidazola-4(1,3)-benzenacycloundecaphane-1^7-carboxamide] | – |
| 5 | 7 | – | C[C@H]1CCCCNC(=O)c2cccc(c2)C(=O)/N=C2\Nc3cc(CN4CCOCC4)cc(C(=O)N(C)C)c3N21 [Example 125, (S,E)-N,N,11-trimethyl-1^5-(morpholinomethyl)-3,5-dioxo-1^2,1^3-dihydro-1^1H-2,6-diaza-1(2,1)-benzo[d]imidazola-4(1,3)-benzenacycloundecaphane-1^7-carboxamide] | – |
| 7 | – | – | C[C@H]1CCCCNC(=O)c2cccc(c2)C(=O)/N=C2\Nc3ccnc(C(=O)N(C)C)c3N21 [Example 128, (S,E)-N,N,11-trimethyl-3,5-dioxo-1^2,1^3-dihydro-1^1H-2,6-diaza-1(2,3)-imidazo[4,5-c]pyridina-4(1,3)-benzenacycloundecaphane-1^4-carboxamide] | – |
| 6 | 6 | – | C[C@H]1CCCCNC(=O)c2cccc(c2)C(=O)/N=C2\Nc3cccc(-c4cn(C5COC5)nn4)c3N21 [Example 129, (S,E)-11-methyl-1^7-(1-(oxetan-3-yl)-1H-1,2,3-triazol-4-yl)-1^2,1^3-dihydro-1^1H-2,6-diaza-1(2,1)-benzo[d]imidazola-4(1,3)-benzenacycloundecaphane-3,5-dione] | – |
| 7 | 27 | – | C[C@H]1CCCCNC(=O)c2cccc(c2)C(=O)/N=C2\Nc3ccnc(N4CCN(C)C4=O)c3N21 [Example 130, (S,E)-11-methyl-1^4-(3-methyl-2-oxoimidazolidin-1-yl)-1^2,1^3-dihydro-1^1H-2,6-diaza-1(2,3)-imidazo[4,5-c]pyridina-4(1,3)-benzenacycloundecaphane-3,5-dione] | – |
| 5 | 13 | – | CN(C)C(=O)c1cccc2c1N1/C(=N/C(=O)c3cccc(c3)C(=O)NCCCCC13CC3)N2 [Example 131, (E)-N,N-dimethyl-3′,5′-dioxospiro[cyclopropane-1,11′-2,6-diaza-1(2,1)-benzo[d]imidazola-4(1,3)-benzenacycloundecaphane]-7′-carboxamide] | – |
| 10 | 12 | – | Cc1nnc(-c2cccc3c2N2/C(=N/C(=O)c4cccc(c4)C(=O)NCCCC[C@@H]2C)N3)n1C(C)C [Example 134, (S,E)-1^7-(4-isopropyl-5-methyl-4H-1,2,4-triazol-3-yl)-11-methyl-1^2,1^3-dihydro-1^1H-2,6-diaza-1(2,1)-benzo[d]imidazola-4(1,3)-benzenacycloundecaphane-3,5-dione] | – |
| 10 | – | – | C[C@H]1CCCCNC(=O)c2cccc(c2)C(=O)/N=C2\Nc3cncc(C(=O)N(C)C)c3N21 [Example 145, (S,E)-N,N,11-trimethyl-3,5-dioxo-1^2,1^3-dihydro-1^1H-2,6-diaza-1(2,1)-imidazo[4,5-c]pyridina-4(1,3)-benzenacycloundecaphane-1^7-carboxamide] | – |
| 5 | 9 | – | C[C@H]1CCCCNC(=O)c2cccc(c2)C(=O)/N=C2\Nc3cccc(N4CCC(F)C4=O)c3N21 (stereo partly drawn) [Example 146, (11S,E)-1^7-(3-fluoro-2-oxopyrrolidin-1-yl)-11-methyl-1^2,1^3-dihydro-1^1H-2,6-diaza-1(2,1)-benzo[d]imidazola-4(1,3)-benzenacycloundecaphane-3,5-dione] | – |
| 5 | – | – | Cc1noc(-c2cccc3c2N2/C(=N/C(=O)c4cccc(c4)C(=O)NCCCC[C@@H]2C)N3)n1 [Example 147, (S,E)-11-methyl-1^7-(3-methyl-1,2,4-oxadiazol-5-yl)-1^2,1^3-dihydro-1^1H-2,6-diaza-1(2,1)-benzo[d]imidazola-4(1,3)-benzenacycloundecaphane-3,5-dione] | – |

Second part, the compound before the results:

| Compound | IC50 [1, 3] [nM] | IC50 [1, 4] [nM] | solubility [2, 5] [µM] | solubility [2] [µM] |
| --- | --- | --- | --- | --- |
| CC1CCCCNC(=O)c2cccc(c2)C(=O)Nc2nc3cccc(C(=O)N(C)C)c3n21 (single isomer, unassigned) [Example 32, (E)-N,N,11-trimethyl-3,5-dioxo-1^2,1^3-dihydro-1^1H-2,6-diaza-1(2,1)-benzo[d]imidazola-4(1,3)-benzenacycloundecaphane-1^7-carboxamide] | 3 | 14 | 95 (≈ 41.2 µg/mL) | – |
| C[C@H]1CCCCNC(=O)c2cccc(c2)C(=O)Nc2nc3ccc(Cl)c(C(=O)N(C)C)c3n21 (single isomer, unassigned) [Example 54] | 8 | 25 | 9 (≈ 4.21 µg/mL) | – |
| CC1CCCCNC(=O)c2cccc(c2)C(=O)/N=C2\Nc3cccc(C(=O)N(C)CCF)c3N21 (single isomer, unassigned) [Example 70, (E)-N-(2-fluoroethyl)-N,11-dimethyl-3,5-dioxo-1^2,1^3-dihydro-1^1H-2,6-diaza-1(2,1)-benzo[d]imidazola-4(1,3)-benzenacycloundecaphane-1^7-carboxamide] | 5 | 6 | 90 (≈ 41.9 µg/mL) | – |
| CC1CCCCNC(=O)c2cccc(c2)C(=O)/N=C2\Nc3cccc(C(=O)N4CCOC[C@H]4C)c3N21 (single isomer, unassigned) [Example 76] | 18 | – | 89 (≈ 43.6 µg/mL) | – |
| CC1CCCCNC(=O)c2cccc(c2)C(=O)/N=C2\Nc3cccc(C(=O)N4CCOC[C@@H]4C)c3N21 (single isomer, unassigned) [Example 78] | 8 | – | 86 (≈ 42.1 µg/mL) | – |
| CC1CCCCNC(=O)c2cccc(c2)C(=O)/N=C2\Nc3cccc(C(=O)N4CC5(CCO5)C4)c3N21 (single isomer, unassigned) [Example 79, (E)-11-methyl-1^7-(1-oxa-6-azaspiro[3.3]heptane-6-carbonyl)-1^2,1^3-dihydro-1^1H-2,6-diaza-1(2,1)-benzo[d]imidazola-4(1,3)-benzenacycloundecaphane-3,5-dione] | 6 | 7 | – | 90 (≈ 43.9 µg/mL) |
| CC1CCCCNC(=O)c2cccc(c2)C(=O)/N=C2\Nc3cccc(C(=O)N4CC[C@H](F)C4)c3N21 (single isomer, unassigned) [Example 89] | 6 | – | 88 (≈ 42 µg/mL) | – |
| O=C1NCCCCCCn2c(nc3ccccc32)NC(=O)c2cccc1c2 [Example 1, 1^1H-2,6-diaza-1(2,1)-benzo[d]imidazola-4(1,3)-benzenacyclododecaphane-3,5-dione] | 27 | – | 1.2 (≈ 0.435 µg/mL) | – |
| CC1CCCCNC(=O)c2cccc(c2)C(=O)Nc2nc3cccc(C(=O)N4CCN(C)CC4)c3n21 (stereo not shown) [Example 8, 11-methyl-1^7-(4-methylpiperazine-1-carbonyl)-1^1H-2,6-diaza-1(2,1)-benzo[d]imidazola-4(1,3)-benzenacycloundecaphane-3,5-dione] | 5 | – | 92.7 (≈ 45.3 µg/mL) | – |
| CN1CCN(C(=O)c2cccc3nc4n(c23)CCCCCNC(=O)c2cccc(c2)C(=O)N4)CC1 [Example 10, 1^7-(4-methylpiperazine-1-carbonyl)-1^1H-2,6-diaza-1(2,1)-benzo[d]imidazola-4(1,3)-benzenacycloundecaphane-3,5-dione] | 11 | – | 28 (≈ 13.3 µg/mL) | – |
| CN1CCN(C(=O)c2ccc3c(c2)nc2n3CCCCCNC(=O)c3cccc(c3)C(=O)N2)CC1 [Example 11, 1^5-(4-methylpiperazine-1-carbonyl)-1^1H-2,6-diaza-1(2,1)-benzo[d]imidazola-4(1,3)-benzenacycloundecaphane-3,5-dione] | 1 | – | 4.8 (≈ 2.28 µg/mL) | – |
| O=C1NCCCCCn2c(nc3cc(C(=O)N4CCN(C5COC5)CC4)ccc32)NC(=O)c2cccc1c2 [Example 12, 1^5-(4-(oxetan-3-yl)piperazine-1-carbonyl)-1^1H-2,6-diaza-1(2,1)-benzo[d]imidazola-4(1,3)-benzenacycloundecaphane-3,5-dione] | 1 | – | 31.1 (≈ 16.1 µg/mL) | – |
